Assay results published in PubChem BioAssay AID330 (DTP/NCI, 2004).
Values joined by “and” are separate entries in the source; they are usually repeats but may differ in a detail not shown here. Equal entries are not always repeated. Toxic doses and inconclusive results are not listed.

Tested on: P388 leukemia ip, CD2F1 mice, survival T/C
Assay: NCI In Vivo Anticancer Drug Screen. Data for tumor model P388 Leukemia (intraperitoneal) in CD2F1 (CDF1) mice
Conditions: endpoint: median survival time, higher = longer survival
How it was run: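 Mice carrying the transplanted tumor received test compound or vehicle. Survival was recorded in each group, and the value is the treated-group measurement divided by that of the vehicle-treated control group.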

[1] = dose: 100.0 mg/kg/injection, schedule: Q01DX001 (ip), vehicle: saline with Tween-80
[2] = dose: 200.0 mg/kg/injection, schedule: Q01DX001 (ip), vehicle: saline with Tween-80
[3] = dose: 400.0 mg/kg/injection, schedule: Q01DX001 (ip), vehicle: saline with Tween-80
[4] = dose: 50.0 mg/kg/injection, schedule: Q01DX005 (ip), vehicle: Klucel (hydroxypropylcellulose) (HPC)
[5] = dose: 100.0 mg/kg/injection, schedule: Q01DX005 (ip), vehicle: Klucel (hydroxypropylcellulose) (HPC)
[6] = dose: 200.0 mg/kg/injection, schedule: Q01DX005 (ip), vehicle: Klucel (hydroxypropylcellulose) (HPC)
[7] = dose: 50.0 mg/kg/injection, schedule: Q01DX009 (ip), vehicle: saline with Tween-80
[8] = dose: 100.0 mg/kg/injection, schedule: Q01DX009 (ip), vehicle: saline with Tween-80
[9] = dose: 200.0 mg/kg/injection, schedule: Q01DX009 (ip), vehicle: saline with Tween-80
[10] = dose: 25.0 mg/kg/injection, schedule: Q01DX009 (ip), vehicle: Klucel (hydroxypropylcellulose) (HPC)
[11] = dose: 50.0 mg/kg/injection, schedule: Q01DX009 (ip), vehicle: Klucel (hydroxypropylcellulose) (HPC)
[12] = dose: 100.0 mg/kg/injection, schedule: Q01DX009 (ip), vehicle: Klucel (hydroxypropylcellulose) (HPC)
[13] = dose: 60.0 mg/kg/injection, schedule: Q01DX005 (ip), vehicle: saline with Tween-80
[14] = dose: 120.0 mg/kg/injection, schedule: Q01DX005 (ip), vehicle: saline with Tween-80
[15] = dose: 240.0 mg/kg/injection, schedule: Q01DX005 (ip), vehicle: saline with Tween-80
[16] = dose: 25.0 mg/kg/injection, schedule: Q01DX005 (ip), vehicle: Klucel (hydroxypropylcellulose) (HPC)

`COP(=O)(OC)O/C(=C/Cl)c1cc(Cl)cc(Cl)c1Cl` was tested, and the T/C (dose: 100.0 mg/kg/injection, schedule: Q04DX003 (ip), vehicle: Klucel (hydroxypropylcellulose) (HPC)) was 102 % of control, the T/C (dose: 200.0 mg/kg/injection, schedule: Q04DX003 (ip), vehicle: Klucel (hydroxypropylcellulose) (HPC)) was 100 % of control and the T/C (dose: 400.0 mg/kg/injection, schedule: Q04DX003 (ip), vehicle: Klucel (hydroxypropylcellulose) (HPC)) was 111 % of control.
With `ClC(Cl)CN(Cc1ccccc1)c1ncc[nH]1` the T/C (dose: 6.25 mg/kg/injection, schedule: Q01DX001 (ip), vehicle: saline) was 105 % of control, the T/C (dose: 12.5 mg/kg/injection, schedule: Q01DX001 (ip), vehicle: saline) was 104 % of control and the T/C (dose: 25.0 mg/kg/injection, schedule: Q01DX001 (ip), vehicle: saline) was 105 % of control.
In the case of `O=C1c2ccccc2C(Cl)(c2ccc(Cl)cc2)c2ccc(Cl)cc21` (stereo not given), the T/C (dose: 25.0 mg/kg/injection, schedule: Q01DX005 (ip), vehicle: saline with Tween-80) is reported as 107 % of control.
`Cc1cc(Cl)ccc1NC(=O)/C(Cl)=C1/Sc2ccccc2NC1=O` was tested, and the T/C [1] was 105 % of control, the T/C [2] was 97 % of control and the T/C [3] was 97 % of control.
For `CCOc1nc2ccc(NC(C)C(=O)N3CCN(CCc4ccccc4)CC3)cc2s1` (stereo not given), the T/C [4] was 100 % of control, the T/C [5] was 100 % of control and the T/C [6] was 112 % of control.
In the case of `COC(=O)C1=C(C)NC(C)=C(C(=O)OC)C(N2C(=O)CCC2=O)C1` (stereo not given), the T/C (dose: 12.5 mg/kg/injection, schedule: Q01DX009 (ip), vehicle: saline with Tween-80) is reported as 100 % of control, the T/C (dose: 25.0 mg/kg/injection, schedule: Q01DX009 (ip), vehicle: saline with Tween-80) is reported as 91 % of control and the T/C [7] is reported as 88 % of control. For the same molecule, the T/C [8] was 88 % of control.
`c1ccc(-c2cc3cc4ccccc4cn3c2)cc1` was tested, and the T/C [7] was 105 % of control, the T/C [8] was 108 % of control and 112 % of control and 92 % of control and the T/C [9] was 117 % of control and 96 % of control. For the same molecule, the T/C (dose: 400.0 mg/kg/injection, schedule: Q01DX009 (ip), vehicle: saline with Tween-80) was 108 % of control and 120 % of control and the T/C (dose: 600.0 mg/kg/injection, schedule: Q01DX009 (ip), vehicle: saline with Tween-80) was 117 % of control.
For `FC(F)(F)c1ccccc1NC(=S)SCc1ccc(Cl)cc1`, the T/C (dose: 50.0 mg/kg/injection, schedule: Q01DX009 (ip), vehicle: suspension in saline) was 104 % of control, the T/C (dose: 100.0 mg/kg/injection, schedule: Q01DX009 (ip), vehicle: suspension in saline) was 101 % of control and the T/C (dose: 200.0 mg/kg/injection, schedule: Q01DX009 (ip), vehicle: suspension in saline) was 108 % of control.
`COC1/C=C/OC2(C)Oc3c(C)c(O)c4c(c3C2=O)C(=O)C=C(NC(=O)/C(C)=C\C=C\C(C)C2OC(C)(C)OC(C(C)C(=O)C1C)C2C)C4=O` (stereo not given) was tested, and the T/C [1] was 103 % of control, the T/C [2] was 95 % of control and the T/C [3] was 100 % of control.
With `O=S(=O)(NN=C(c1ccccc1)c1ccccc1)c1ccccc1` the T/C [10] was 99 % of control, the T/C [11] was 93 % of control and the T/C [12] was 101 % of control. The T/C (dose: 200.0 mg/kg/injection, schedule: Q01DX009 (ip), vehicle: Klucel (hydroxypropylcellulose) (HPC)) was 106 % of control and the T/C (dose: 400.0 mg/kg/injection, schedule: Q01DX009 (ip), vehicle: Klucel (hydroxypropylcellulose) (HPC)) was 90 % of control.
`COc1cc2c(cc1OC)C1=[N+](CCC1)CC2` was tested, and the T/C (dose: 15.0 mg/kg/injection, schedule: Q01DX005 (ip), vehicle: saline) was 101 % of control, the T/C (dose: 30.0 mg/kg/injection, schedule: Q01DX005 (ip), vehicle: saline) was 99 % of control and the T/C (dose: 60.0 mg/kg/injection, schedule: Q01DX005 (ip), vehicle: saline) was 99 % of control.
For `O=[N+]([O-])c1ccccc1OCC1CO1` (stereo not given), the T/C [10] was 106 % of control, the T/C [11] was 105 % of control and the T/C [12] was 105 % of control.
With `Cc1cc2c(oc(=O)c3cc(C)sc32)s1` the T/C [4] was 99 % of control, the T/C [5] was 103 % of control and the T/C [6] was 97 % of control.
For `NC(CCCCCCC(N)C(=O)c1ccccc1)C(=O)c1ccccc1` (stereo not given), the T/C [13] was 98 % of control, the T/C [14] was 98 % of control and the T/C [15] was 91 % of control.
With `[CH3][Sn]([CH3])([N](c1ccccn1)c1ccccn1)[N](c1ccccn1)c1ccccn1` the T/C [4] was 111 % of control and the T/C [5] was 118 % of control.
`CSc1nc2n(C)cc(C)cc-2c(=O)n1` was tested, and the T/C (dose: 25.0 mg/kg/injection, schedule: Q01DX001 (ip), vehicle: saline with Tween-80) was 97 % of control, the T/C (dose: 50.0 mg/kg/injection, schedule: Q01DX001 (ip), vehicle: saline with Tween-80) was 97 % of control and the T/C [1] was 99 % of control.
`Nc1ncc2[nH]cnc2n1` was tested, and the T/C [4] was 102 % of control, the T/C [5] was 100 % of control and the T/C [6] was 103 % of control.
For `CC1=C(CO)C(=O)OC(C(C)C2CCC3C4CC5OC56C(O)C(N5CCOCC5)CC(=O)C6(C)C4CCC23C)C1` (stereo not given), the T/C (dose: 8.25 mg/kg/injection, schedule: Q01DX005 (ip), vehicle: Klucel (hydroxypropylcellulose) (HPC)) was 103 % of control, the T/C (dose: 16.5 mg/kg/injection, schedule: Q01DX005 (ip), vehicle: Klucel (hydroxypropylcellulose) (HPC)) was 99 % of control and the T/C (dose: 33.0 mg/kg/injection, schedule: Q01DX005 (ip), vehicle: Klucel (hydroxypropylcellulose) (HPC)) was 97 % of control. For the same molecule, the T/C (dose: 66.0 mg/kg/injection, schedule: Q01DX005 (ip), vehicle: Klucel (hydroxypropylcellulose) (HPC)) was 97 % of control and the T/C (dose: 132.0 mg/kg/injection, schedule: Q01DX005 (ip), vehicle: Klucel (hydroxypropylcellulose) (HPC)) was 103 % of control.
In the case of `COC(=O)c1ccccc1NC(C)=NC(C)(C)C`, the T/C [7] is reported as 103 % of control, the T/C [8] is reported as 90 % of control and the T/C [9] is reported as 90 % of control.
With `C=C(OP(=O)(OC)OC)Sc1ccccc1C` the T/C (dose: 0.04 mg/kg/injection, schedule: Q01DX005 (ip), vehicle: Klucel (hydroxypropylcellulose) (HPC)) was 105 % of control, the T/C (dose: 0.09 mg/kg/injection, schedule: Q01DX005 (ip), vehicle: Klucel (hydroxypropylcellulose) (HPC)) was 100 % of control and the T/C (dose: 0.18 mg/kg/injection, schedule: Q01DX005 (ip), vehicle: Klucel (hydroxypropylcellulose) (HPC)) was 106 % of control. The T/C (dose: 0.37 mg/kg/injection, schedule: Q01DX005 (ip), vehicle: Klucel (hydroxypropylcellulose) (HPC)) was 92 % of control, the T/C (dose: 0.75 mg/kg/injection, schedule: Q01DX005 (ip), vehicle: Klucel (hydroxypropylcellulose) (HPC)) was 100 % of control and the T/C (dose: 1.5 mg/kg/injection, schedule: Q01DX005 (ip), vehicle: Klucel (hydroxypropylcellulose) (HPC)) was 96 % of control. The T/C (dose: 12.5 mg/kg/injection, schedule: Q01DX009 (ip), vehicle: Klucel (hydroxypropylcellulose) (HPC)) was 100 % of control and 97 % of control, the T/C [10] was 102 % of control and 116 % of control and the T/C [11] was 111 % of control and 121 % of control. For the same molecule, the T/C [12] was 105 % of control and 92 % of control.
For `CN(C)c1ccc2c(Nc3ccc(NS(C)(=O)=O)cc3)c3ccc(N(C)C)cc3nc2c1`, the T/C [16] was 161 % of control, the T/C [4] was 153 % of control and 155 % of control and the T/C [5] was 172 % of control and 212 % of control. For the same molecule, the T/C [6] was 173 % of control and 216 % of control.
With `Cc1ccn2ncnc2c1` the T/C [7] was 101 % of control, the T/C [8] was 102 % of control and the T/C [9] was 91 % of control.
For `CN1CCCN(C)C1c1ccc(Cl)cc1`, the T/C (dose: 12.5 mg/kg/injection, schedule: Q01DX009 (ip), vehicle: saline sonified) was 90 % of control and the T/C (dose: 25.0 mg/kg/injection, schedule: Q01DX009 (ip), vehicle: saline sonified) was 90 % of control.
In the case of `COC(=O)c1cc(-c2ccccc2)c2c(=O)n(-c3ccccc3)[nH]c2n1`, the T/C [13] is reported as 99 % of control, the T/C [14] is reported as 100 % of control and the T/C [15] is reported as 96 % of control.
With `COc1cc2c(c(-c3cn(C)c4ccccc34)c1OC)OCO2` the T/C [13] was 97 % of control, the T/C [14] was 98 % of control and the T/C [15] was 97 % of control.
`c1cc2c(cc1CC1CCNC1)OCO2` (stereo not given) was tested, and the T/C (dose: 5.0 mg/kg/injection, schedule: Q01DX009 (ip), vehicle: saline) was 95 % of control, the T/C (dose: 10.0 mg/kg/injection, schedule: Q01DX009 (ip), vehicle: saline) was 100 % of control and the T/C (dose: 20.0 mg/kg/injection, schedule: Q01DX009 (ip), vehicle: saline) was 95 % of control.
In the case of `CC(=O)CC(=O)c1ccc(Br)cc1.CC(=O)CC(=O)c1ccc(Br)cc1.[Ni]`, the T/C [1] is reported as 90 % of control, the T/C [2] is reported as 87 % of control and the T/C [3] is reported as 90 % of control.
In the case of `CCOc1ccc2ccccc2c1C(Cc1ccccc1)NC` (stereo not given), the T/C (dose: 12.5 mg/kg/injection, schedule: Q01DX005 (ip), vehicle: Klucel (hydroxypropylcellulose) (HPC)) is reported as 99 % of control, the T/C [16] is reported as 93 % of control and the T/C [4] is reported as 99 % of control and 100 % of control.
For `CSc1nc(NC2OC(COC(C)=O)C(OC(C)=O)C(OC(C)=O)C2OC(C)=O)c(N=C(C)C(C)=O)c(=O)n1C` (stereo not given), the T/C [13] was 90 % of control and the T/C [14] was 91 % of control.
`COc1cc(-c2oc3ccccc3c(=O)c2O)cc(OC)c1OC` was tested, and the T/C [7] was 93 % of control, the T/C [8] was 91 % of control and the T/C [9] was 93 % of control.
